Measured values from US8497367B2, “Sucralose purification process” (Tate & Lyle Technology Limited, priority 2008, dated 2013).

Test: Distribution coefficient K of sucralose between ethyl acetate (light phase) and aqueous DMAHCl/NaCl solution (heavy phase)
Format: physicochemical
Conditions: about 37 g ethyl acetate
Experimental: The solutions were all clear and colorless at room temperature.
Each sample was shaken with about 37 g of ethyl acetate (EA). The mixture was allowed to settle, resulting in the formation of a heavy phase (aqueous) and a light phase (EA based). The weights of these respective phases were recorded and each phase was analysed for its sucralose content. The dry solids content of each phase was also measured by evaporation to dryness (moisture balance).
From the data presented, it is possible to calculate the distribution coefficient K for each experiment, where K is defined as: K=(Wt % Sucralose in light phase)/(Wt % sucralose in heavy phase)

## OC[C@H]1O[C@H](O[C@]2(CCl)O[C@H](CCl)[C@@H](O)[C@@H]2O)[C@H](O)[C@@H](O)[C@H]1Cl [Sucralose, 4,1′,6′-trichloro-4,1′,6′-trideoxygalactosucrose]
Exp #3, feed wt % on water: DMAHCL 0.36%, NaCl 9.87%, sucralose 27.58%
  Calculated K / Actual K = (Wt % Sucralose in light phase)/(Wt % sucralose in heavy phase): 1.38
Exp #4, feed wt % on water: DMAHCL 0.41%, NaCl 2.10%, sucralose 27.06%
  Calculated K / Actual K = (Wt % Sucralose in light phase)/(Wt % sucralose in heavy phase): 0.93
Exp #5, feed wt % on water: DMAHCL 5.07%, NaCl 9.75%, sucralose 27.31%
  Calculated K / Actual K = (Wt % Sucralose in light phase)/(Wt % sucralose in heavy phase): 1.09
Exp #8, feed wt % on water: DMAHCL 4.99%, NaCl 2.04%, sucralose 27.01%
  Calculated K / Actual K = (Wt % Sucralose in light phase)/(Wt % sucralose in heavy phase): 0.83
Exp #9, feed wt % on water: DMAHCL 2.55%, NaCl 5.15%, sucralose 13.98%
  Calculated K / Actual K = (Wt % Sucralose in light phase)/(Wt % sucralose in heavy phase): 0.76
